Reference: US6525017B1, “Using glutathiane to protect neurons from injury” (The Children's Medical Center Corporation, priority 1989, dated 2003)

Assays:
Format in all cases: cell-based
[1] = test system: NMDA receptor; assay: Whole-cell patch-clamp NMDA responses in cultured rat cortical neurons
Method: The effects of reduction and oxidation on the NMDA response were further examined in cultured mammalian central neurons with the use of patch electrodes. Experiments were performed on neurons in primary cultures of CD rat neocortex derived from embryonic day 16 fetuses and plated onto glass coverslips coated with collagen and poly-L-lysine. The growth medium consisted of a v/v mixture of 80% DMEM (Sigma D5530), 10% F-12 (Sigma), 10% heat-inactivated, iron-supplemented serum (Hyclone), with 25 mM HEPES, 24 U/ml penicillin, and 24 μg/ml streptomycin, supplemented to 2 mM glutamine. Recordings were performed on 3- to 13-week-old cultures, and neurons studied ranged from 12 to 18 μm in diameter. The extracellular solution for the physiological experiments contained 137 mM NaCl, 1 mM NaHCO3, 0.34 mM NaHPO4, 5.36 mM KCl, 0.44 mM KH2PO4, 2.5 mM CaCl2, 5 mM HEPES-NaOH, 22.2 mM dextrose, 0.001% (v/v) phenol red, adjusted to pH 7.2 with 0.3 N NaOH (no added magnesium, except where noted). Tetrodotoxin (TTX) (1 μM) was routinely added to reduce synaptic activity. The intracellular (pipette) solution contained 120 mM CsCl, 20 mM TEA-Cl, 2 mM MgCl2, 1 mM CaCl2, 1.5-2.25 mM EGTA, and 10 mM HEPES-NAOH, adjusted to pH 7.2 with concentrated TEA-OH. Electrophysiological measurements were performed at 33° C.-35° C. with patch electrodes (4-8 MΩ), essentially as described in Lipton et al. J. Physiol 385:361, 1987. Lipton et al. 1987 includes the following disclosure of electrophysiological recordings by patch clamp from solitary neurons:
“. . . patch-clamp recordings were made . . . following the methods of Hamill et al. (1981) using an EPC-7 amplifier (List Electronic, Darmstadt, F.R.G.). Patch electrodes had resistances of 3-5 MΩ when filled with Na^+ or K^+ saline. Patch electrodes were used to record whole-cell currents under voltage clamp as well as single-channel currents from patches of membrane excised from the cell. The indifferent electrode was a Ag-AgCl wire connected to the culture dish via an agarose bridge. Holding and command potentials (VH and Vc, respectively (were generated by a digital-to-analog converter (Cheshire Data, Hamden, Conn., U.S.A.) interfaced with a PDP 11/23 or 11/73 computer (Digital Equipment Corp., Maynard, Mass., U.S.A.). Data collection was also controlled by the computer; data were sampled and digitized with a 12-bit, 125 kHz analog-to-digital converter (Data Translation, Marlboro, Mass., U.S.A., Model DT2782DMA) and viewed on a Hewlett-Packard digital display (Model 1345A). The sampling rate was set at 10 μs to 50 ms depending on the level of analysis. Using the amplifier test circuit, the digitized data were accurate to within 1%. The signals were low-pass filtered at a setting appropriate to the sampling frequency (Ithaco, Ithaca, N.Y., U.S.A., Model 4302 with a Bessel frequency cut-off characteristic of 48 dB/octave). Leakage currents and liquid junction potentials were corrected as described in Fenwick, Marty & Neher [J. Physiol. 331:577-597] (1982a). Using the EPC-7 circuit, analog compensation of the series resistance was applied. This ensured a relatively small error due to the voltage drop across the series resistance (less than or equal to that calculated by Marty & Neher, 1985 [J. Physiol. 367:117-141]). Data were stored on a 30 megabyte Winchester disk (Data Systems Design, San Jose, Calif., U.S.A., Model 880). […]

[2] = test system: nicotinic receptor; assay: Nicotinic receptor function in intact chick retina
Method: Eyecups were obtained from 2-to 5-day-old chicks and continuously superfused at 20-25° C. at a rate of 8 ml/min with Tyrodes solution (130 mM NaCl, 3 mM KCl, 17 mM dextrose, 20 mM NaHCO3, 0.01% w/v phenol red; bubbled with a gas mixture of 95% O2 and 5% CO2) containing 5 mM MgCl2 to reduce synaptic activity. […] Traces were triggered by the opening of two solenoid valves that shunted approximately 200 μl of agonist (1, 1-dimethyl-4-phenyl-piperazinium iodide, DMPP or NMDA) into the perfusion line, Agonists reached the preparation approximately 7s later. The resulting responses originated, at least in part, in the retinal ganglion cells. Some experiments were performed in the presence of 10 μg/ml catalase and 1 μg/ml superoxide dismutase. Antagonists, reducing agents, or oxidizing agents were introduced directly via the perfusate.
The action of DTT lasted for tens of minutes after the reducing agent was removed; any small decrement in the potentiation could be reversed with additional DTT treatment. The function of the nicotinic receptors was restored upon oxidation with 0.1-1.0 mM DTNB (applied for 5 min). […] The reduction and oxidation effects could be alternated repeatedly for as long as the preparation remained stable, which was often more than 9 hr.

[3] = test system: NMDA receptor; assay: Whole-cell NMDA responses in isolated rat retinal ganglion cells
Method: The third central neuronal preparation in which the effects of oxidation and reduction on NMDA responses were tested was the isolated rat retinal ganglion cell. Postnatal retinal ganglion cells were identified and cultured as described in Lipton et al., supra. Physiological solutions and experimental protocol were the same as described for cortical neurons (Example 2), except that TTX was excluded from the extracellular fluid, since whole-cell recordings were performed on neurons that were solitary and had no apparent connections to other cells and no spontaneous action potentials.
These cells have well-characterized, albeit small, NMDA responses. Treatment with 2 mM DTT (1-3 min) produced potentiation of the response elicited by 200 μM NMDA and 1 μM glycine (250%±130% of control; range, 220%-320%). […] Glycine (1 μM) potentiation of NMDA (200 μM) responses occurred in both the reduced and the oxidized states. […] The effects of reduction and oxidation could be repeated in alternating fashion in these cells for as long as the recording remained stable.

SMILES	decrease of NMDA response ([1]; 1-3 min treatment with 0.1-1.0 mM DTNB, mean ± spread)	decrease of NMDA response, range ([1]; 1-3 min treatment with 0.1-1.0 mM DTNB, range)	nicotinic receptor function upon oxidation ([2]; 0.1-1.0 mM DTNB applied for 5 min, after DTT)	decrement of the native NMDA response ([3]; 0.1-0.2 mM DTNB, mean ± spread)	decrement of the native NMDA response, range ([3]; 0.1-0.2 mM DTNB, range)	voltage-clamped NMDA response, % of control (potentiation) ([1]; 10-100 μM NMDA + 1 μM glycine, 1-5 min treatment with 0.5-2.0 mM DTT, mean ± spread)	voltage-clamped NMDA response, % of control, range ([1]; 10-100 μM NMDA + 1 μM glycine, 1-5 min treatment with 0.5-2.0 mM DTT, range)	NMDA response on reapplication of DTT after oxidation ([1]; after DTNB oxidation)	nicotinic receptor function after reduction ([2]; DTT 1-2 mM applied for 10-25 min)	NMDA response, % of control (potentiation) ([3]; 200 μM NMDA + 1 μM glycine, 2 mM DTT 1-3 min, mean ± spread)	NMDA response, % of control, range ([3]; 200 μM NMDA + 1 μM glycine, 2 mM DTT 1-3 min, range)
O=C(O)c1cc(SSc2ccc([N+](=O)[O-])c(C(=O)O)c2)ccc1[N+](=O)[O-] [DTNB, 5′-5′-dithiobis-2-nitrobenzoic acid]	22.9%±12.9%	0%-39.5%	restored	49.4%±9.4%	37%-60%	–	–	–	–	–	–
O[C@@H](CS)[C@@H](O)CS [DTT, dithothreitol]	–	–	–	–	–	250%±140%	220%-330%	always restored the NMDA response to greater than control levels	blocks nicotinic receptor function	250%±130%	220%-320%
